According to patent US20130338190A1, “PHARMACEUTICALLY ACCEPTABLE SALT OF (E)-N-[4-[[3-CHLORO-4-(2-PYRIDYLMETHOXY)PHENYL]AMINO]-3-CYANO-7-ETHOXY-6-QUINOLYL]-3-[(2R)-1-METHYLPYRROLIDIN-2-YL]PROP-2-ENAMIDE, PREPARATION METHOD THEREOF, AND MEDICAL USE THEREOF” (priority 2011, published 2013):
Values after ≈ are worked out from the molar mass of the structure shown. Read-outs that look alike come from different tables or passages of the source.

Key:
[1] = Pharmacokinetics assay in rats (LC/MS/MS of plasma); type: in vivo, Sprague Dawley (SD) rats; details: rat; for Vd/F: read-out: Vz/F
Protocol: The rats were used as test animals. The compound of formula (I) and other salts thereof were administrated intragastrically, and a maleate salt of the compound of formula (I) was injected into the tail vein to determine the drug concentration in plasma at different time points by an LC/MS/MS method. The pharmacokinetic behavior, characteristics and the oral absolute bioavailability of the present compounds were studied and evaluated in rats. […] 28 healthy adult Sprague Dawley (SD) rats, half male and half female, were purchased from SINO-BRITSH SIPPR/BK LAB. ANIMAL LTD., CO, License number: SCXK (Shanghai) 2008-0016, and divided into 7 groups (4 rats in each group). The intravenous injection group: a suitable amount of compounds was weighed, dissolved in DMSO and diluted with normal saline to the final volume. […] healthy adult SD rats, half male and half female, were divided into 7 groups (4 rats in each group). […] For the intravenous injection group, blood samples (0.2 mL) were taken from orbital sinus before administration and at 2 min, 15 min, 30 min, 1.0 […] and 36.0 h after administration, stored in heparinized tubes and centrifuged for 10 minutes at 3,500 rpm to separate blood plasma. The plasma samples were stored at -20° C. For the intragastrical administration group, blood samples were taken before administration and at 0.5, 1.0, 2.0, 3.0, 4.0, 6.0, 8.0, 12.0, 24.0 and 36.0 hours after administration. The method to treat the samples was the same as with the intravenous injection group. The rats were fed 2 hours after administration.

[2] = system: human carcinoma SK-BR-3 cells, which have high expression of HER-2; test: HER-2 cell activity assay (SRB, 96 hours); type: cell-based
Description: The following in vitro assay was to determine the activity of the compounds of the present invention for inhibiting the proliferation of human carcinoma SK-BR-3 cells, which have high expression of HER-2.
The following in vitro assay was to determine the activity of the test compounds for inhibiting the angiogenesis and proliferation of cancer cells, which have high expression of HER-2. The activity is represented by the IC50 value. The general procedure of the assay was as follows: the cancer cells line SK-BR-3 highly expressing HER-2 was chosen and the cells were seeded in a 96-well cell culture plate at a suitable density. The cells then were incubated in a carbon dioxide incubator until they reached 60% confluence. Then, the cell culture medium was replaced by fresh medium with the test compounds at various concentrations (6 to 7 concentrations). The cells were put back in the incubator and cultured continuously for 96 hours. The activity of the test compounds for inhibiting the cell proliferation was determined by using a Sulforhodamine B (SRB) method. IC50 values of test cells were calculated by the rate of inhibition at various concentrations of the test compounds.

HER-2 kinase = HER-2 kinase (Homo sapiens, UniProt P04626); test: HER-2 kinase activity assay (time-resolved fluorescence); type: biochemical; details: table of the HER-2 kinase activity assay; human-derived recombinant HER-2 kinase, 20 μM ATP, 25° C., 45 minutes; read-out: IC50 (HER-2/SK-BR-3)
Protocol: The in vitro HER-2 kinase activity was tested by the following assay.
The following assay was used to determine the activity of the compounds of the present invention for inhibiting HER-2 kinase. The half maximal inhibitory concentration IC50 (the concentration of the test compound showing 50% inhibition of the enzyme activity) of each compound was determined by incubating several different concentrations of the test compounds with a specific enzyme and substrate. […] The HER-2 kinase activity was determined by using a time-resolved fluorescence method.

Solubility assay [3] = type: physicochemical
Protocol: According to the conventional solubility measurement, the solubility of a compound of formula (I) and salts thereof was determined in three different systems: water, physiological saline and methanol.

Solubility assay [4] = type: physicochemical; remark: listed apart in the source
[5] = system: human epidermoid carcinoma A431 cells, which have high expression of EGFR; test: EGFR cell proliferation inhibition assay (SRB, 72 hours); type: cell-based; details: Homo sapiens, A-431, 72 h, read-out: IC50 (EGFR/A431)
Protocol: The activity is represented by the IC50 value. The general procedures of the assay were as follows: the cancer cells A431 highly expressing EGFR were chosen and seeded in a 96-well cell culture plate at a suitable density (e.g., 5000 cells/mL medium). The cells were then incubated in a carbon dioxide incubator until they reached 85% confluence. Then, the cell culture medium was replaced by fresh medium containing the test compounds with serial dilutions (general 6 to 7 concentrations). The cells were put back in the incubator and cultured continuously for 72 hours. The activity of the test compounds for inhibiting the cell proliferation was determined by using a Sulforhodamine B (SRB) method. IC50 values were calculated by the rate of inhibition at various concentrations of the test compounds.

[6] = both sexes, Sprague-Dawley, plasma, iv, 25 mg/kg, vein (tail vein injection)
[7] = both sexes, Sprague-Dawley, plasma, iv, 25 mg/kg, vein (tail vein injection), read-out: AUC0-t
[8] = both sexes, Sprague-Dawley, plasma, iv, 25 mg/kg, vein (tail vein injection), read-out: MRT
[9] = vein (tail vein injection), 25 mg/kg
[10] = both sexes, Sprague-Dawley, plasma, po, 25 mg/kg, gavage
[11] = both sexes, Sprague-Dawley, plasma, po, 25 mg/kg, gavage, read-out: AUC0-t
[12] = both sexes, Sprague-Dawley, plasma, po, 25 mg/kg, gavage, read-out: Cmax
[13] = both sexes, Sprague-Dawley, plasma, po, 25 mg/kg, gavage, read-out: MRT
[14] = vein (tail vein injection), 25 mg/kg, dimaleate
[15] = gavage, 25 mg/kg, dimethanesulfonate
[16] = vein (tail vein injection), 25 mg/kg, dimethanesulfonate
[17] = gavage, 25 mg/kg, trimethanesulphonate
[18] = vein (tail vein injection), 25 mg/kg, trimethanesulphonate

Sequence of HER-2 kinase (P04626 23-1255): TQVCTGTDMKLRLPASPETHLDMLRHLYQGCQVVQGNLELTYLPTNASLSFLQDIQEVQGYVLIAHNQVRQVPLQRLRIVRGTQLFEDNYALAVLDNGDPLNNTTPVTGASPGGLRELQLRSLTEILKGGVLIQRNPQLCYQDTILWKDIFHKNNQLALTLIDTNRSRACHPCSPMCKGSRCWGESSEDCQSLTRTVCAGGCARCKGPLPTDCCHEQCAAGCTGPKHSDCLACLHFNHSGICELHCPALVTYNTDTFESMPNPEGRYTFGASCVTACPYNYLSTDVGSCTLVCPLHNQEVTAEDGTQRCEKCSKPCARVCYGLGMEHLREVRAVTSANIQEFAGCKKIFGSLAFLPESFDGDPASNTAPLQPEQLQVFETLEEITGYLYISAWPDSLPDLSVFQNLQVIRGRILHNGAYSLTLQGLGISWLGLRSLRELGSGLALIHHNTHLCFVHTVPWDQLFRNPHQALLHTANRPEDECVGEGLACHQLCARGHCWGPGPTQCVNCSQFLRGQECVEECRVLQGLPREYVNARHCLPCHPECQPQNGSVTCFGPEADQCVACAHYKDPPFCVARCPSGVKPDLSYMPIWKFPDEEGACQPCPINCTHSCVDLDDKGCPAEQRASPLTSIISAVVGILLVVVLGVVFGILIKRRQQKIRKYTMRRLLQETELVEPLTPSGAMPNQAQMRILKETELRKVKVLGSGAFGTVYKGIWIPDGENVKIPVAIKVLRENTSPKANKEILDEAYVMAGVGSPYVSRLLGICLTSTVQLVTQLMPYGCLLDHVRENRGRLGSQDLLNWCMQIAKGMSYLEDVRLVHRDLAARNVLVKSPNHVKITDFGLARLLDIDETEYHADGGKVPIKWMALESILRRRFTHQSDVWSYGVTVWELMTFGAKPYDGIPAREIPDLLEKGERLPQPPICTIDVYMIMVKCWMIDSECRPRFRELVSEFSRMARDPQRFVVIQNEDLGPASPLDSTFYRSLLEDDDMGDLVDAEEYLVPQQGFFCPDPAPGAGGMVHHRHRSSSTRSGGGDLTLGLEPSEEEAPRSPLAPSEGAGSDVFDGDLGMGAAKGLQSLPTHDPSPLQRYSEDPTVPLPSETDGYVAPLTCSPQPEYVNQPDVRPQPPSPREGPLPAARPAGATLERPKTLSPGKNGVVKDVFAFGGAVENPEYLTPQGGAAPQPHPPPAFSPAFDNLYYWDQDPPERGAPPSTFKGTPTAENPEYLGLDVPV

CCOc1cc2ncc(C#N)c(Nc3ccc(OCc4ccccn4)c(Cl)c3)c2cc1NC(=O)/C=C/[C@H]1CCCN1C.O=C(O)/C=C\C(=O)O [Example 1, (E)-N-[4-[[3-chloro-4-(2-pyridylmethoxy)phenyl]amino]-3-cyano-7-ethoxy-6-quinolyl]-3-[(2R)-1-methylpyrrolidin-2-yl]prop-2-enamide maleate]
half-life [1, 6]: 295 ± 36 min | AUC(0-t) [1, 7]: 222 ± 77 µg·h/mL | MRT [1, 8]: 5.5 ± 0.99 h | AUC(0-t) ([1]; gavage, 25 mg/kg, maleate): 104.58 ± 56.54 µg·h/mL | Cmax ([1]; gavage, 25 mg/kg, maleate): 8.99 ± 4.87 µg/mL | MRT ([1]; gavage, 25 mg/kg, maleate): 8.93 ± 1.39 h | t1/2 ([1]; gavage, 25 mg/kg, maleate): 4.4 ± 1.3 h | F (%) ([1]; oral absolute bioavailability, 25 mg/kg (calculated by the base part), maleate): 47.1% | IC50 ([2]; read-out: IC50 (HER-2/SK-BR-3), maleate): 64 nM | IC50 (HER-2 kinase): 53 nM | solubility (Solubility assay [3]; physiological saline, saline or isotonic, physiological saline, read-out: Solubility Value, Physiological saline): 190 µg/mL | Solubility Value, 0.1M Hydrochloric acid (Solubility assay [4]; maleate): 23.33 mg/mL | Solubility Value, Water (Solubility assay [4]; water, maleate): 12.49 mg/mL

CCOc1cc2ncc(C#N)c(Nc3ccc(OCc4ccccn4)c(Cl)c3)c2cc1NC(=O)/C=C/[C@H]1CCCN1C [Example 1f, (E)-N-[4-[[3-chloro-4-(2-pyridylmethoxy)phenyl]amino]-3-cyano-7-ethoxy-6-quinolyl]-3-[(2R)-1-methylpyrrolidin-2-yl]prop-2-enamide]
AUC(0-t) ([1]; gavage, 25 mg/kg): 52.81 ± 23.59 µg·h/mL | F (%) ([1]; oral absolute bioavailability, 25 mg/kg (calculated by the base part)): 42.2% | AUC(0-t) [1, 9]: 125.4 ± 38.95 µg·h/mL | MRT [1, 9]: 4.22 ± 0.71 h | t1/2 [1, 9]: 5.25 ± 2.01 h | IC50 ([2]; Homo sapiens, SK-BR-3, 96 h, read-out: IC50 (HER-2/SK-BR-3)): 59 nM | IC50 (HER-2 kinase): 65 nM | Solubility Value, Water (Solubility assay [3]): 0.008 mg/mL (≈ 13.7 µM) | Solubility Value, 0.1M Hydrochloric acid (Solubility assay [4]): 1.43 mg/mL (≈ 2450 µM) | solubility in conventional solvents (in words) (Solubility assay [4]; conventional solvents): poorly soluble | Solubility Value, Physiological saline (Solubility assay [4]): 0.0026 mg/mL

CCOc1cc2ncc(C#N)c(Nc3ccc(OCc4ccccn4)c(Cl)c3)c2cc1NC(=O)/C=C/[C@H]1CCCN1C.O=C(O)/C=C\C(=O)O [Example 2, (E)-N-[4-[[3-chloro-4-(2-pyridylmethoxy)phenyl]amino]-3-cyano-7-ethoxy-6-quinolyl]-3-[(2R)-1-methylpyrrolidin-2-yl]prop-2-enamide dimaleate]
CL/F [1, 10]: 4.83 mL/min/kg | half-life [1, 10]: 267 ± 97.8 min | AUC(0-t) [1, 11]: 116 ± 67.2 µg·h/mL | Cmax [1, 12]: 10.2 ± 4.41 µg/mL | MRT [1, 13]: 8.03 ± 0.99 h | Vd/F [1, 10]: 1.84 ± 1.19 L/kg | bioavailability ([1]; both sexes, Sprague-Dawley, plasma, po, 25 mg/kg, oral absolute bioavailability, 25 mg/kg (calculated by the base part)): 48.3% | MRT [1, 14]: 2.96 ± 0.47 h | t1/2 [1, 14]: 3.74 ± 1.20 h | IC50 [5]: 31 nM | IC50 (HER-2 kinase): 28 nM | Solubility Value, Water (Solubility assay [3]; dimaleate): 1.52 mg/mL | Solubility Value, 0.1M Hydrochloric acid (Solubility assay [4]; dimaleate): 54.88 mg/mL | Solubility Value, Physiological saline (Solubility assay [4]; dimaleate): 0.36 mg/mL

CCOc1cc2ncc(C#N)c(Nc3ccc(OCc4ccccn4)c(Cl)c3)c2cc1NC(=O)/C=C/[C@H]1CCCN1C.CS(=O)(=O)O [Example 4, (E)-N-[4-[[3-chloro-4-(2-pyridylmethoxy)phenyl]amino]-3-cyano-7-ethoxy-6-quinolyl]-3-[(2R)-1-methylpyrrolidin-2-yl]prop-2-enamide methanesulfonate]
half-life [1, 6]: 226 ± 13.2 min | AUC(0-t) [1, 7]: 146 ± 40.4 µg·h/mL | MRT [1, 8]: 5.46 ± 0.48 h | CL/F [1, 10]: 5.33 mL/min/kg | half-life [1, 10]: 220 ± 49.8 min | AUC(0-t) [1, 11]: 92.3 ± 37 µg·h/mL | Cmax [1, 12]: 6.92 ± 1.82 µg/mL | MRT [1, 13]: 8.4 ± 0.65 h | Vd/F [1, 10]: 1.6 ± 0.54 L/kg | F (%) ([1]; oral absolute bioavailability, 25 mg/kg (calculated by the base part), methanesulfonate): 63.2%

CCOc1cc2ncc(C#N)c(Nc3ccc(OCc4ccccn4)c(Cl)c3)c2cc1NC(=O)/C=C/[C@H]1CCCN1C.CS(=O)(=O)O [Example 5, (E)-N-[4-[[3-chloro-4-(2-pyridylmethoxy)phenyl]amino]-3-cyano-7-ethoxy-6-quinolyl]-3-[(2R)-1-methylpyrrolidin-2-yl]prop-2-enamide dimethanesulfonate]
AUC(0-t) [1, 15]: 81.53 ± 40.46 µg·h/mL | Cmax [1, 15]: 7.88 ± 2.51 µg/mL | MRT [1, 15]: 7.95 ± 0.61 h | t1/2 [1, 15]: 3.46 ± 0.56 h | F (%) ([1]; oral absolute bioavailability, 25 mg/kg (calculated by the base part), dimethanesulfonate): 72.1% | AUC(0-t) [1, 16]: 112.84 ± 62.1 µg·h/mL | MRT [1, 16]: 4.2 ± 0.99 h | t1/2 [1, 16]: 3.12 ± 0.37 h

CCOc1cc2ncc(C#N)c(Nc3ccc(OCc4ccccn4)c(Cl)c3)c2cc1NC(=O)/C=C/[C@H]1CCCN1C.CS(=O)(=O)O [Example 6, (E)-N-[4-[[3-chloro-4-(2-pyridylmethoxy)phenyl]amino]-3-cyano-7-ethoxy-6-quinolyl]-3-[(2R)-1-methylpyrrolidin-2-yl]prop-2-enamide trimethanesulphonate]
AUC(0-t) [1, 17]: 81.72 ± 22.16 µg·h/mL | Cmax [1, 17]: 6.27 ± 1.58 µg/mL | MRT [1, 17]: 8.59 ± 0.22 h | t1/2 [1, 17]: 4.15 ± 0.09 h | F (%) ([1]; oral absolute bioavailability, 25 mg/kg (calculated by the base part), trimethanesulphonate): 50.5% | AUC(0-t) [1, 18]: 162.28 ± 55.65 µg·h/mL | MRT [1, 18]: 4.94 ± 0.58 h | t1/2 [1, 18]: 5.27 ± 0.29 h
